Laboratory results published in US20230017045A1, “PYRIDINE AND PYRIMIDINE CARBOXYLATE HERBICIDES AND METHODS OF USE THEREOF” (Dow AgroSciences LLC, priority 2017, published 2023).

The compounds below were run on test plant species (assay: Post-emergent herbicidal activity test (greenhouse, foliar spray, visual growth reduction)). Conditions: post-emergence, 336 h, ALOMY: blackgrass (Alopecurus myosuroides), 140 g ai/ha, 14 days after application, read-out: Visual Growth Reduction (%) 14 Days After Application, ALOMY.
Type: in vivo
Outline: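 Seedlings were raised 7-21 d in a greenhouse under a 15 h photoperiod until the first or second true leaf. Each compound, dissolved in acetone:DMSO 97:3 and diluted into a surfactant-containing spray mixture, was then applied at 187 L/ha. Plants were subirrigated, and growth reduction was scored visually at 14 d.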
In the case of `COC(=O)c1nc(-c2cc3c(cc2Cl)OCO3)ccc1Cl` [F144, Methyl 3-chloro-6-(6-chlorobenzo[d] [1,3]dioxol-5-yl) picolinate], the pest or weed control at 140 g/ha is reported as 0 to 29%. Work on `O=C(OCc1ccc(Cl)cc1Cl)c1nc(-c2ccc(C(F)(F)F)cc2Cl)ccc1Cl` [F116, 2,4-dichlorobenzyl 3-chloro-6-(2-chloro-4-(trifluoromethyl)phenyl)picolinate] yielded a pest or weed control at 140 g/ha of 30 to 44%.

Same assay, conditions: post-emergence, 336 h, AMARE: redroot pigweed (Amaranthus retroflexus), 140 g ai/ha, 14 days after application, read-out: Visual Growth Reduction (%) 14 Days After Application, AMARE
Compound `COC(=O)c1nc(-c2cc3c(cc2Cl)OCO3)ccc1Cl` [F144, Methyl 3-chloro-6-(6-chlorobenzo[d] [1,3]dioxol-5-yl) picolinate] has a pest or weed control at 140 g/ha of 45 to 59%. Work on `O=C(OCc1ccc(Cl)cc1Cl)c1nc(-c2ccc(C(F)(F)F)cc2Cl)ccc1Cl` [F116, 2,4-dichlorobenzyl 3-chloro-6-(2-chloro-4-(trifluoromethyl)phenyl)picolinate] yielded a pest or weed control at 140 g/ha of 95 to 100%.

Same assay, conditions: post-emergence, 336 h, AVEFA: wild oat (Avena fatua), 140 g ai/ha, 14 days after application, read-out: Visual Growth Reduction (%) 14 Days After Application, AVEFA
`COC(=O)c1nc(-c2cc3c(cc2Cl)OCO3)ccc1Cl` [F144, Methyl 3-chloro-6-(6-chlorobenzo[d] [1,3]dioxol-5-yl) picolinate] was tested, and the pest or weed control at 140 g/ha was 0 to 29%. With `O=C(OCc1ccc(Cl)cc1Cl)c1nc(-c2ccc(C(F)(F)F)cc2Cl)ccc1Cl` [F116, 2,4-dichlorobenzyl 3-chloro-6-(2-chloro-4-(trifluoromethyl)phenyl)picolinate] the pest or weed control at 140 g/ha was 45 to 59%.

Same assay, conditions: post-emergence, 336 h, CHEAL: lambsquarters (Chenopodium album), 140 g ai/ha, 14 days after application, read-out: Visual Growth Reduction (%) 14 Days After Application, CHEAL
For `COC(=O)c1nc(-c2cc3c(cc2Cl)OCO3)ccc1Cl` [F144, Methyl 3-chloro-6-(6-chlorobenzo[d] [1,3]dioxol-5-yl) picolinate], the pest or weed control at 140 g/ha was 75 to 84%. `O=C(OCc1ccc(Cl)cc1Cl)c1nc(-c2ccc(C(F)(F)F)cc2Cl)ccc1Cl` [F116, 2,4-dichlorobenzyl 3-chloro-6-(2-chloro-4-(trifluoromethyl)phenyl)picolinate] showed a pest or weed control at 140 g/ha of 85 to 94%.

Same assay, conditions: post-emergence, 336 h, CIRAR: canada thistle (Cirsium arvense), 140 g ai/ha, 14 days after application, read-out: Visual Growth Reduction (%) 14 Days After Application, CIRAR
Compound `COC(=O)c1nc(-c2cc3c(cc2Cl)OCO3)ccc1Cl` [F144, Methyl 3-chloro-6-(6-chlorobenzo[d] [1,3]dioxol-5-yl) picolinate] has a pest or weed control at 140 g/ha of 0 to 29%. Compound `O=C(OCc1ccc(Cl)cc1Cl)c1nc(-c2ccc(C(F)(F)F)cc2Cl)ccc1Cl` [F116, 2,4-dichlorobenzyl 3-chloro-6-(2-chloro-4-(trifluoromethyl)phenyl)picolinate] has a pest or weed control at 140 g/ha of 85 to 94%.

Same assay, conditions: post-emergence, 336 h, CYPES: yellow nutsedge (Cyperus esculentus), 140 g ai/ha, 14 days after application, read-out: Visual Growth Reduction (%) 14 Days After Application, CYPES
Compound `COC(=O)c1nc(-c2cc3c(cc2Cl)OCO3)ccc1Cl` [F144, Methyl 3-chloro-6-(6-chlorobenzo[d] [1,3]dioxol-5-yl) picolinate] has a pest or weed control at 140 g/ha of 0 to 29%. For `O=C(OCc1ccc(Cl)cc1Cl)c1nc(-c2ccc(C(F)(F)F)cc2Cl)ccc1Cl` [F116, 2,4-dichlorobenzyl 3-chloro-6-(2-chloro-4-(trifluoromethyl)phenyl)picolinate], the pest or weed control at 140 g/ha was 0 to 29%.

Same assay, conditions: post-emergence, 336 h, DIGSA: crabgrass (Digitaria sanguinalis), 140 g ai/ha, 14 days after application, read-out: Visual Growth Reduction (%) 14 Days After Application, DIGSA
With `COC(=O)c1nc(-c2cc3c(cc2Cl)OCO3)ccc1Cl` [F144, Methyl 3-chloro-6-(6-chlorobenzo[d] [1,3]dioxol-5-yl) picolinate] the pest or weed control at 140 g/ha was 0 to 29%. In the case of `O=C(OCc1ccc(Cl)cc1Cl)c1nc(-c2ccc(C(F)(F)F)cc2Cl)ccc1Cl` [F116, 2,4-dichlorobenzyl 3-chloro-6-(2-chloro-4-(trifluoromethyl)phenyl)picolinate], the pest or weed control at 140 g/ha is reported as 85 to 94%.

Same assay, conditions: post-emergence, 336 h, ECHCG: barnyardgrass (Echinochloa crus-galli), 140 g ai/ha, 14 days after application, read-out: Visual Growth Reduction (%) 14 Days After Application, ECHCG
For `COC(=O)c1nc(-c2cc3c(cc2Cl)OCO3)ccc1Cl` [F144, Methyl 3-chloro-6-(6-chlorobenzo[d] [1,3]dioxol-5-yl) picolinate], the pest or weed control at 140 g/ha was 0 to 29%. Compound `O=C(OCc1ccc(Cl)cc1Cl)c1nc(-c2ccc(C(F)(F)F)cc2Cl)ccc1Cl` [F116, 2,4-dichlorobenzyl 3-chloro-6-(2-chloro-4-(trifluoromethyl)phenyl)picolinate] has a pest or weed control at 140 g/ha of 75 to 84%.

Same assay, conditions: post-emergence, 336 h, IPOHE: ivy-leaf morning glory (Ipomoea hederacea), 140 g ai/ha, 14 days after application, read-out: Visual Growth Reduction (%) 14 Days After Application, IPOHE
For `COC(=O)c1nc(-c2cc3c(cc2Cl)OCO3)ccc1Cl` [F144, Methyl 3-chloro-6-(6-chlorobenzo[d] [1,3]dioxol-5-yl) picolinate], the pest or weed control at 140 g/ha was 75 to 84%. `O=C(OCc1ccc(Cl)cc1Cl)c1nc(-c2ccc(C(F)(F)F)cc2Cl)ccc1Cl` [F116, 2,4-dichlorobenzyl 3-chloro-6-(2-chloro-4-(trifluoromethyl)phenyl)picolinate] gave a pest or weed control at 140 g/ha of 85 to 94%.

Same assay, conditions: post-emergence, 336 h, KCHSC: kochia (Bassia scoparia), 140 g ai/ha, 14 days after application, read-out: Visual Growth Reduction (%) 14 Days After Application, KCHSC
With `COC(=O)c1nc(-c2cc3c(cc2Cl)OCO3)ccc1Cl` [F144, Methyl 3-chloro-6-(6-chlorobenzo[d] [1,3]dioxol-5-yl) picolinate] the pest or weed control at 140 g/ha was 0 to 29%. In the case of `O=C(OCc1ccc(Cl)cc1Cl)c1nc(-c2ccc(C(F)(F)F)cc2Cl)ccc1Cl` [F116, 2,4-dichlorobenzyl 3-chloro-6-(2-chloro-4-(trifluoromethyl)phenyl)picolinate], the pest or weed control at 140 g/ha is reported as 75 to 84%.

Same assay, conditions: post-emergence, 336 h, ORYSA: rice (Oryza sativa), 140 g ai/ha, 14 days after application, read-out: Visual Growth Reduction (%) 14 Days After Application, ORYSA
`COC(=O)c1nc(-c2cc3c(cc2Cl)OCO3)ccc1Cl` [F144, Methyl 3-chloro-6-(6-chlorobenzo[d] [1,3]dioxol-5-yl) picolinate] gave a pest or weed control at 140 g/ha of 0 to 29%. `O=C(OCc1ccc(Cl)cc1Cl)c1nc(-c2ccc(C(F)(F)F)cc2Cl)ccc1Cl` [F116, 2,4-dichlorobenzyl 3-chloro-6-(2-chloro-4-(trifluoromethyl)phenyl)picolinate] gave a pest or weed control at 140 g/ha of 0 to 29%.

Same assay, conditions: post-emergence, 336 h, SETFA: giant foxtail (Setaria faberi), 140 g ai/ha, 14 days after application, read-out: Visual Growth Reduction (%) 14 Days After Application, SETFA
Work on `COC(=O)c1nc(-c2cc3c(cc2Cl)OCO3)ccc1Cl` [F144, Methyl 3-chloro-6-(6-chlorobenzo[d] [1,3]dioxol-5-yl) picolinate] yielded a pest or weed control at 140 g/ha of 0 to 29%. In the case of `O=C(OCc1ccc(Cl)cc1Cl)c1nc(-c2ccc(C(F)(F)F)cc2Cl)ccc1Cl` [F116, 2,4-dichlorobenzyl 3-chloro-6-(2-chloro-4-(trifluoromethyl)phenyl)picolinate], the pest or weed control at 140 g/ha is reported as 60 to 74%.

Same assay, conditions: post-emergence, 336 h, SORVU: grain sorghum (Sorghum vulgare), 140 g ai/ha, 14 days after application, read-out: Visual Growth Reduction (%) 14 Days After Application, SORVU
Work on `COC(=O)c1nc(-c2cc3c(cc2Cl)OCO3)ccc1Cl` [F144, Methyl 3-chloro-6-(6-chlorobenzo[d] [1,3]dioxol-5-yl) picolinate] yielded a pest or weed control at 140 g/ha of 0 to 29%. Compound `O=C(OCc1ccc(Cl)cc1Cl)c1nc(-c2ccc(C(F)(F)F)cc2Cl)ccc1Cl` [F116, 2,4-dichlorobenzyl 3-chloro-6-(2-chloro-4-(trifluoromethyl)phenyl)picolinate] has a pest or weed control at 140 g/ha of 85 to 94%.

Same assay, conditions: post-emergence, 336 h, STEME: common chickweed (Stellaria media), 140 g ai/ha, 14 days after application, read-out: Visual Growth Reduction (%) 14 Days After Application, STEME
With `COC(=O)c1nc(-c2cc3c(cc2Cl)OCO3)ccc1Cl` [F144, Methyl 3-chloro-6-(6-chlorobenzo[d] [1,3]dioxol-5-yl) picolinate] the pest or weed control at 140 g/ha was 0 to 29%. For `O=C(OCc1ccc(Cl)cc1Cl)c1nc(-c2ccc(C(F)(F)F)cc2Cl)ccc1Cl` [F116, 2,4-dichlorobenzyl 3-chloro-6-(2-chloro-4-(trifluoromethyl)phenyl)picolinate], the pest or weed control at 140 g/ha was 0 to 29%.

Same assay, conditions: post-emergence, 336 h, TRZAS: wheat, spring (Triticum aestivum), 140 g ai/ha, 14 days after application, read-out: Visual Growth Reduction (%) 14 Days After Application, TRZAS
For `COC(=O)c1nc(-c2cc3c(cc2Cl)OCO3)ccc1Cl` [F144, Methyl 3-chloro-6-(6-chlorobenzo[d] [1,3]dioxol-5-yl) picolinate], the pest or weed control at 140 g/ha was 0 to 29%. `O=C(OCc1ccc(Cl)cc1Cl)c1nc(-c2ccc(C(F)(F)F)cc2Cl)ccc1Cl` [F116, 2,4-dichlorobenzyl 3-chloro-6-(2-chloro-4-(trifluoromethyl)phenyl)picolinate] was tested, and the pest or weed control at 140 g/ha was 60 to 74%.
